What all share (type): functional
Assay [1] concerns Streptococcus pneumoniae. The experiment in a line: Antibacterial activity against erythromycin-resistant Streptococcus pneumoniae B1 expressing erm gene by broth microdilution method.
Assay [2] concerns Streptococcus pneumoniae. In words: Antibacterial activity against erythromycin-resistant Streptococcus pneumoniae AB11 expressing erm and mef genes by broth microdilution method. (In broth dilution the organism is exposed to a series of concentrations in liquid medium.)
Assay [3] deals with Streptococcus pneumoniae. The experiment in a line: Antibacterial activity against erythromycin-resistant Streptococcus pneumoniae A22072 expressing mef gene by broth microdilution method.
Assay [4] has as its system Streptococcus pneumoniae. In words: Antibacterial activity against erythromycin-susceptible Streptococcus pneumoniae ATCC 49619 by broth microdilution method.

Values after ≈ are worked out from the molar mass of the structure shown. A value given as a limit tells only on which side of the number the result lay.

In the case of `CCCCCNC(=O)O[C@@H]1[C@@H](C)N(C)C[C@H](C)C[C@@](C)(O)[C@H](O[C@@H]2O[C@H](C)C[C@H](N(C)C)[C@H]2O)[C@@H](C)[C@H](O[C@H]2C[C@@](C)(OC)[C@@H](OC(=O)NCCc3ccccc3Cl)[C@H](C)O2)[C@@H](C)C(=O)O[C@H](CC)[C@@]1(C)O`, the MIC – broadly, the lowest concentration found to suppress growth – in the assay with Streptococcus pneumoniae [1] is 0.5 µg/mL (≈ 0.479 µM); in the assay with Streptococcus pneumoniae [2] it was 16 µg/mL (≈ 15.3 µM); in the assay with Streptococcus pneumoniae [3] it was 0.5 µg/mL (≈ 0.479 µM); in the assay on Streptococcus pneumoniae [4] it was below 0.03 µg/mL.

Consider `CCCCCNC(=O)O[C@@H]1[C@@H](C)N(C)C[C@H](C)C[C@@](C)(O)[C@H](O[C@@H]2O[C@H](C)C[C@H](N(C)C)[C@H]2O)[C@@H](C)[C@H](O[C@H]2C[C@@](C)(OC)[C@@H](OC(=O)NCc3ccc(OC)cc3)[C@H](C)O2)[C@@H](C)C(=O)O[C@H](CC)[C@@]1(C)O`, for which the MIC is 0.5 µg/mL (≈ 0.488 µM) against Streptococcus pneumoniae [1], 32 µg/mL (≈ 31.2 µM) against Streptococcus pneumoniae [2], 1 µg/mL (≈ 0.975 µM) against Streptococcus pneumoniae [3] and 0.06 µg/mL (≈ 0.0585 µM) with Streptococcus pneumoniae [4].

Regarding `CC[C@H]1OC(=O)[C@H](C)[C@@H](O[C@H]2C[C@@](C)(OC)[C@@H](OC(=O)NCc3ccc(F)cc3)[C@H](C)O2)[C@H](C)[C@@H](O[C@@H]2O[C@H](C)C[C@H](N(C)C)[C@H]2O)[C@](C)(O)C[C@@H](C)CN(C)[C@H](C)[C@@H](OC(=O)NCCc2ccccc2)[C@]1(C)O`, the minimum inhibitory concentration (MIC) against Streptococcus pneumoniae [1] is 0.25 µg/mL (≈ 0.239 µM); in the assay with Streptococcus pneumoniae [2], 32 µg/mL (≈ 30.6 µM); in the assay with Streptococcus pneumoniae [3], 0.06 µg/mL (≈ 0.0573 µM); against Streptococcus pneumoniae [4], below 0.03 µg/mL.

Consider `CCCCNC(=O)O[C@@H]1[C@@H](C)N(C)C[C@H](C)C[C@@](C)(O)[C@H](O[C@@H]2O[C@H](C)C[C@H](N(C)C)[C@H]2O)[C@@H](C)[C@H](O[C@H]2C[C@@](C)(OC)[C@@H](OC(=O)NCc3ccc(OC)cc3)[C@H](C)O2)[C@@H](C)C(=O)O[C@H](CC)[C@@]1(C)O`, for which the MIC in the assay on Streptococcus pneumoniae [1] was 0.5 µg/mL (≈ 0.494 µM); with Streptococcus pneumoniae [2], 128 µg/mL (≈ 127 µM); in the assay on Streptococcus pneumoniae [3], 1 µg/mL (≈ 0.989 µM); in the assay on Streptococcus pneumoniae [4], 0.06 µg/mL (≈ 0.0593 µM).

Turning to `CC[C@H]1OC(=O)[C@H](C)[C@@H](O[C@H]2C[C@@](C)(OC)[C@@H](OC(=O)NCc3ccc(F)cc3)[C@H](C)O2)[C@H](C)[C@@H](O[C@@H]2O[C@H](C)C[C@H](N(C)C)[C@H]2O)[C@](C)(O)C[C@@H](C)CN(C)[C@H](C)[C@@H](OC(=O)NCCc2ccccc2Cl)[C@]1(C)O`, the MIC in the assay on Streptococcus pneumoniae [1] was 0.25 µg/mL (≈ 0.231 µM); in the assay with Streptococcus pneumoniae [2], 2 µg/mL (≈ 1.85 µM); against Streptococcus pneumoniae [3], 0.12 µg/mL (≈ 0.111 µM); in the assay with Streptococcus pneumoniae [4], below 0.03 µg/mL.

Regarding `CC[C@H]1OC(=O)[C@H](C)[C@@H](O[C@H]2C[C@@](C)(OC)[C@@H](OC(=O)NCCc3ccc(O)cc3)[C@H](C)O2)[C@H](C)[C@@H](O[C@@H]2O[C@H](C)C[C@H](N(C)C)[C@H]2O)[C@](C)(O)C[C@@H](C)CN(C)[C@H](C)[C@H]2OC(=O)O[C@@]21C`, the MIC in the assay on Streptococcus pneumoniae [1] is 8 µg/mL (≈ 8.53 µM); against Streptococcus pneumoniae [2], 4 µg/mL (≈ 4.26 µM); against Streptococcus pneumoniae [3], 1 µg/mL (≈ 1.07 µM); in the assay with Streptococcus pneumoniae [4], below 0.03 µg/mL.

Take `CCCCNC(=O)O[C@@H]1[C@@H](C)N(C)C[C@H](C)C[C@@](C)(O)[C@H](O[C@@H]2O[C@H](C)C[C@H](N(C)C)[C@H]2O)[C@@H](C)[C@H](O[C@H]2C[C@@](C)(OC)[C@@H](OC(=O)NCCc3ccc(O)cc3)[C@H](C)O2)[C@@H](C)C(=O)O[C@H](CC)[C@@]1(C)O`: the MIC in the assay on Streptococcus pneumoniae [1] was 0.25 µg/mL (≈ 0.247 µM); against Streptococcus pneumoniae [2] it was 128 µg/mL (≈ 127 µM); in the assay on Streptococcus pneumoniae [3] it was 1 µg/mL (≈ 0.989 µM); against Streptococcus pneumoniae [4] it was below 0.03 µg/mL.

For the compound `CC[C@H]1OC(=O)[C@H](C)[C@@H](O[C@H]2C[C@@](C)(OC)[C@@H](OC(=O)NCCc3ccccc3Cl)[C@H](C)O2)[C@H](C)[C@@H](O[C@@H]2O[C@H](C)C[C@H](N(C)C)[C@H]2O)[C@](C)(O)C[C@@H](C)CN(C)[C@H](C)[C@H]2OC(=O)O[C@@]21C`, the MIC in the assay on Streptococcus pneumoniae [1] is 8 µg/mL (≈ 8.36 µM); against Streptococcus pneumoniae [2], 2 µg/mL (≈ 2.09 µM); in the assay with Streptococcus pneumoniae [3], 0.25 µg/mL (≈ 0.261 µM); in the assay with Streptococcus pneumoniae [4], below 0.03 µg/mL.

Consider `CC[C@H]1OC(=O)[C@H](C)[C@@H](O[C@H]2C[C@@](C)(OC)[C@@H](OC(=O)NCCc3ccc(O)cc3)[C@H](C)O2)[C@H](C)[C@@H](O[C@@H]2O[C@H](C)C[C@H](N(C)C)[C@H]2O)[C@](C)(O)C[C@@H](C)CN(C)[C@H](C)[C@@H](OC(=O)NCc2ccccc2)[C@]1(C)O`, for which the MIC is 0.25 µg/mL (≈ 0.239 µM) against Streptococcus pneumoniae [1], 128 µg/mL (≈ 122 µM) in the assay on Streptococcus pneumoniae [2], 0.12 µg/mL (≈ 0.115 µM) against Streptococcus pneumoniae [3] and below 0.03 µg/mL with Streptococcus pneumoniae [4].

As to `CC[C@H]1OC(=O)[C@H](C)[C@@H](O[C@H]2C[C@@](C)(OC)[C@@H](OC(=O)NCc3ccc(OC)cc3)[C@H](C)O2)[C@H](C)[C@@H](O[C@@H]2O[C@H](C)C[C@H](N(C)C)[C@H]2O)[C@](C)(O)C[C@@H](C)CN(C)[C@H](C)[C@H]2OC(=O)O[C@@]21C`, the MIC against Streptococcus pneumoniae [1] is 8 µg/mL (≈ 8.53 µM); against Streptococcus pneumoniae [2], 16 µg/mL (≈ 17.1 µM); against Streptococcus pneumoniae [3] it was 0.25 µg/mL (≈ 0.266 µM); in the assay on Streptococcus pneumoniae [4], below 0.03 µg/mL.

Turning to `CC[C@H]1OC(=O)[C@H](C)[C@@H](O[C@H]2C[C@@](C)(OC)[C@@H](OC(=O)NCCc3ccccc3Cl)[C@H](C)O2)[C@H](C)[C@@H](O[C@@H]2O[C@H](C)C[C@H](N(C)C)[C@H]2O)[C@](C)(O)C[C@@H](C)CN(C)[C@H](C)[C@@H](OC(=O)NCCc2ccc(O)cc2)[C@]1(C)O`, the MIC in the assay with Streptococcus pneumoniae [1] is 0.25 µg/mL (≈ 0.229 µM); with Streptococcus pneumoniae [2], 16 µg/mL (≈ 14.6 µM); against Streptococcus pneumoniae [3], 0.06 µg/mL (≈ 0.0549 µM); against Streptococcus pneumoniae [4], below 0.03 µg/mL.

Turning to `CC[C@H]1OC(=O)[C@H](C)[C@@H](O[C@H]2C[C@@](C)(OC)[C@@H](OC(=O)NCCc3ccccc3Cl)[C@H](C)O2)[C@H](C)[C@@H](O[C@@H]2O[C@H](C)C[C@H](N(C)C)[C@H]2O)[C@](C)(O)C[C@@H](C)CN(C)[C@H](C)[C@@H](OC(=O)NCc2ccc(F)cc2)[C@]1(C)O`, the MIC against Streptococcus pneumoniae [1] worked out at 0.25 µg/mL (≈ 0.231 µM); in the assay with Streptococcus pneumoniae [2], 4 µg/mL (≈ 3.7 µM); against Streptococcus pneumoniae [3] it was 0.25 µg/mL (≈ 0.231 µM); in the assay on Streptococcus pneumoniae [4], 0.06 µg/mL (≈ 0.0555 µM).

Take `CC[C@H]1OC(=O)[C@H](C)[C@@H](O[C@H]2C[C@@](C)(OC)[C@@H](OC(=O)NCc3ccc(F)cc3)[C@H](C)O2)[C@H](C)[C@@H](O[C@@H]2O[C@H](C)C[C@H](N(C)C)[C@H]2O)[C@](C)(O)C[C@@H](C)CN(C)[C@H](C)[C@H]2OC(=O)O[C@@]21C`: the MIC against Streptococcus pneumoniae [1] was 8 µg/mL (≈ 8.64 µM); against Streptococcus pneumoniae [2], 4 µg/mL (≈ 4.32 µM); with Streptococcus pneumoniae [3], 0.06 µg/mL (≈ 0.0648 µM); against Streptococcus pneumoniae [4] it was below 0.03 µg/mL.

Take `CC[C@H]1OC(=O)[C@H](C)[C@@H](O[C@H]2C[C@@](C)(OC)[C@@H](OC(=O)NCCc3ccc(O)cc3)[C@H](C)O2)[C@H](C)[C@@H](O[C@@H]2O[C@H](C)C[C@H](N(C)C)[C@H]2O)[C@](C)(O)C[C@@H](C)CN(C)[C@H](C)[C@@H](OC(=O)NCCc2ccccc2Cl)[C@]1(C)O`: the MIC was 0.25 µg/mL (≈ 0.229 µM) in the assay with Streptococcus pneumoniae [1], 16 µg/mL (≈ 14.6 µM) in the assay with Streptococcus pneumoniae [2], 0.25 µg/mL (≈ 0.229 µM) in the assay with Streptococcus pneumoniae [3] and below 0.03 µg/mL in the assay on Streptococcus pneumoniae [4].

Consider `CC[C@H]1OC(=O)[C@H](C)[C@@H](O[C@H]2C[C@@](C)(OC)[C@@H](OC(=O)NCCc3ccccc3Cl)[C@H](C)O2)[C@H](C)[C@@H](O[C@@H]2O[C@H](C)C[C@H](N(C)C)[C@H]2O)[C@](C)(O)C[C@@H](C)CN(C)[C@H](C)[C@@H](OC(=O)NCc2ccccc2)[C@]1(C)O`, for which the MIC was 0.25 µg/mL (≈ 0.235 µM) against Streptococcus pneumoniae [1], 4 µg/mL (≈ 3.76 µM) against Streptococcus pneumoniae [2], 0.25 µg/mL (≈ 0.235 µM) in the assay on Streptococcus pneumoniae [3] and below 0.03 µg/mL in the assay on Streptococcus pneumoniae [4].

In the case of `CC[C@H]1OC(=O)[C@H](C)[C@@H](O[C@H]2C[C@@](C)(OC)[C@@H](O)[C@H](C)O2)[C@H](C)[C@@H](O[C@@H]2O[C@H](C)C[C@H](N(C)C)[C@H]2O)[C@](C)(O)C[C@@H](C)CN(C)[C@H](C)[C@@H](O)[C@]1(C)O` [AZITHROMYCIN], the MIC against Streptococcus pneumoniae [1] was 128 µg/mL (≈ 171 µM); against Streptococcus pneumoniae [2], 256 µg/mL (≈ 342 µM); against Streptococcus pneumoniae [3] it was 4 µg/mL (≈ 5.34 µM); with Streptococcus pneumoniae [4], below 0.03 µg/mL.

`CC[C@H]1OC(=O)[C@H](C)[C@@H](O[C@H]2C[C@@](C)(OC)[C@@H](O)[C@H](C)O2)[C@H](C)[C@@H](O[C@@H]2O[C@H](C)C[C@H](N(C)C)[C@H]2O)[C@](C)(OC)C[C@@H](C)C(=O)[C@H](C)[C@@H](O)[C@]1(C)O` [CLARITHROMYCIN]: the MIC is 64 µg/mL (≈ 85.6 µM) with Streptococcus pneumoniae [1], 128 µg/mL (≈ 171 µM) in the assay with Streptococcus pneumoniae [2], 4 µg/mL (≈ 5.35 µM) with Streptococcus pneumoniae [3] and below 0.03 µg/mL with Streptococcus pneumoniae [4].

Source of the values: ChEMBL document CHEMBL1153924, “Synthesis and antibacterial activity of 4'',11-di-O-arylalkylcarbamoyl azithromycin derivatives” (2009).
